Assay results published in patent publication US20100210539A1, “USE OF PEPTIDE LL-37 AS A THERAPEUTIC AGENT” (priority 2007, published 2010).

Tests used:
[1] = test system: HepG2-2.2.15 cells; details: peptide 10 micrograms per ml, dye uptake assay
[2] = test system: HIV-1IIIB in CEM-SS cells; assay: HIV-1 antiviral assay, CPE reduction (MTS); details: peptide 10 micrograms per ml, 6 days post-infection
[3] = test system: CEM-SS cells; details: peptide 10 micrograms per ml, MTS
[4] = test system: HCMV strain AD169 in MRC-5 cells; assay: HCMV plaque reduction assay; details: HCMV AD169 in MRC-5 cells; peptide 10 micrograms per ml; 7-10 days
[5] = test system: MRC-5 cells; details: human, 6 days
[6] = test system: Methicillin Resistant Staphylococcus Aureus (MRSA); details: 5 micrograms per ml
[7] = in vitro; details: human, CEM-SS cells
[8] = test system: Streptococcus pneumoniae; details: 5 micrograms per ml
[9] = in vitro; details: human
[10] = Cytotoxicity in MRC-5 cells (CellTiter 96); details: human, MRC-5 cells (embryonal lung fibroblasts)
[11] = test system: Pseudomonas aeruginosa; details: 5 micrograms per ml

Nc1ccn([C@@H]2CS[C@H](CO)O2)c(=O)n1 [3TC, Lamivudine]
% Cell viability [1]: 95.8%

Cc1cn([C@H]2C[C@H](N=[N+]=[N-])[C@@H](CO)O2)c(=O)[nH]c1=O [AZT]
% CPE reduction in HIV-1 infected CEM-SS cells [2]: 99%
% Cell viability [3]: 97%

Nc1nc(O)c2ncn(COC(CO)CO)c2n1 [Ganciclovir]
% plaque reduction [4]: 100%
% Cell viability [5]: 100%

CC(C)(C)NC(=O)[C@@H]1CN(Cc2cccnc2)CCN1C[C@@H](O)C[C@@H](Cc1ccccc1)C(=O)N[C@H]1c2ccccc2C[C@H]1O [Indinavir]
% CPE reduction in HIV-1 infected CEM-SS cells [2]: 100%

CC[C@H](C)[C@H](NC(=O)[C@H](CCCCN)NC(=O)[C@H](CCC(=O)O)NC(=O)[C@H](CCCCN)NC(=O)[C@H](CO)NC(=O)[C@H](CCCCN)NC(=O)[C@H](CCCNC(=N)N)NC(=O)[C@H](Cc1ccccc1)NC(=O)[C@H](Cc1ccccc1)NC(=O)[C@H](CC(=O)O)NC(=O)CNC(=O)[C@H](CC(C)C)NC(=O)[C@@H](N)CC(C)C)C(=O)NCC(=O)N[C@@H](CCCCN)C(=O)N[C@@H](CCC(=O)O)C(=O)N[C@@H](Cc1ccccc1)C(=O)N[C@@H](CCCCN)C(=O)N[C@@H](CCCNC(=N)N)C(=O)N[C@H](C(=O)N[C@H](C(=O)N[C@@H](CCC(N)=O)C(=O)N[C@@H](CCCNC(=N)N)C(=O)N[C@H](C(=O)N[C@@H](CCCCN)C(=O)N[C@@H](CC(=O)O)C(=O)N[C@@H](Cc1ccccc1)C(=O)N[C@@H](CC(C)C)C(=O)N[C@@H](CCCNC(=N)N)C(=O)N[C@@H](CC(N)=O)C(=O)N[C@@H](CC(C)C)C(=O)N[C@H](C(=O)N1CCC[C@H]1C(=O)N[C@@H](CCCNC(=N)N)C(=O)N[C@H](C(=O)N[C@@H](CCC(=O)O)C(=O)N[C@@H](CO)C(N)=O)[C@@H](C)O)C(C)C)[C@@H](C)CC)C(C)C)[C@@H](C)CC [LL-37]
% inhibition [6]: 0.0%
viability at 10 micrograms per ml [7]: 86.4%
% inhibition [8]: 0.0%
viability at 144 h, 10 micrograms per ml [9]: 100%
viability at 144 h [10]: 100%
% inhibition [11]: 0.0%
